Reference: the CheMixHub viscosity set
± gives the uncertainty stated by the source.

Assay: xn = mol fraction of the nth substance listed

CCCCCCCCCCO + CCCCO
viscosity [mPa·s]
Settings | 293.15 K | 298.15 K | 308.15 K | 318.15 K
101 kPa, x2 = 0.05 | – | 10.62 ± 0.11 | 7.143 ± 0.071 | 5.139 ± 0.049
101 kPa, x2 = 0.1 | – | 10.2 ± 0.1 | 6.798 ± 0.069 | 4.922 ± 0.047
101 kPa, x2 = 0.15 | – | 9.731 ± 0.097 | 6.473 ± 0.066 | 4.71 ± 0.045
101 kPa, x2 = 0.2 | – | 9.226 ± 0.092 | 6.163 ± 0.063 | 4.501 ± 0.042
101 kPa, x2 = 0.25 | – | 8.701 ± 0.087 | 5.866 ± 0.059 | 4.294 ± 0.04
101 kPa, x2 = 0.3 | – | 8.167 ± 0.081 | 5.576 ± 0.056 | 4.088 ± 0.038
101 kPa, x2 = 0.35 | – | 7.635 ± 0.075 | 5.292 ± 0.052 | 3.883 ± 0.036
101 kPa, x2 = 0.4 | – | 7.113 ± 0.07 | 5.012 ± 0.049 | 3.678 ± 0.034
101 kPa, x2 = 0.45 | – | 6.609 ± 0.065 | 4.734 ± 0.046 | 3.475 ± 0.032
101 kPa, x2 = 0.5 | – | 6.127 ± 0.06 | 4.456 ± 0.043 | 3.272 ± 0.03
101 kPa, x2 = 0.55 | – | 5.671 ± 0.055 | 4.179 ± 0.04 | 3.07 ± 0.028
101 kPa, x2 = 0.6 | – | 5.243 ± 0.051 | 3.903 ± 0.037 | 2.872 ± 0.026
101 kPa, x2 = 0.65 | – | 4.843 ± 0.047 | 3.629 ± 0.034 | 2.676 ± 0.024
101 kPa, x2 = 0.7 | – | 4.47 ± 0.043 | 3.358 ± 0.031 | 2.485 ± 0.022
101 kPa, x2 = 0.75 | – | 4.12 ± 0.039 | 3.093 ± 0.029 | 2.301 ± 0.02
101 kPa, x2 = 0.8 | – | 3.788 ± 0.035 | 2.837 ± 0.026 | 2.124 ± 0.018
101 kPa, x2 = 0.85 | – | 3.468 ± 0.032 | 2.592 ± 0.024 | 1.958 ± 0.016
101 kPa, x2 = 0.9 | – | 3.152 ± 0.029 | 2.364 ± 0.022 | 1.804 ± 0.014
101 kPa, x2 = 0.95 | – | 2.828 ± 0.025 | 2.157 ± 0.02 | 1.665 ± 0.013
101.33 kPa, x2 = 0.1748 | 11.91 ± 0.28 | – | – | –
101.33 kPa, x2 = 0.1793 | – | 9.791 ± 0.24 | – | –
101.33 kPa, x2 = 0.2939 | 10.27 ± 0.25 | – | – | –
101.33 kPa, x2 = 0.4002 | – | 7.559 ± 0.19 | – | –
101.33 kPa, x2 = 0.491 | 7.756 ± 0.2 | – | – | –
101.33 kPa, x2 = 0.5389 | – | 6.102 ± 0.16 | – | –
101.33 kPa, x2 = 0.6325 | 6.156 ± 0.16 | – | – | –
101.33 kPa, x2 = 0.7242 | – | 4.498 ± 0.13 | – | –
101.33 kPa, x2 = 0.7787 | 4.69 ± 0.13 | – | – | –
101.33 kPa, x2 = 0.836 | – | 3.659 ± 0.11 | – | –
101.33 kPa, x2 = 0.8851 | 3.806 ± 0.11 | – | – | –
101.33 kPa, x2 = 0.9219 | – | 3.077 ± 0.089 | – | –

CCCCCCCCCCCC[P+](CC)(CC)CC.N#Cc1ccc[n-]1 + OCCN(CCO)CCO
viscosity [mPa·s], 100 kPa
Settings | x1 = 0.035 | x1 = 0.091 | x1 = 0.207 | x1 = 0.28 | x1 = 0.473 | x1 = 0.687 | x1 = 0.809
293.15 K | 991 ± 150 | – | 876 ± 130 | 863 ± 130 | 853 ± 130 | 836 ± 120 | 718 ± 110
298.15 K | – | 675 ± 100 | – | – | – | – | –

CCN1CCCC1=O + O
101 kPa
Settings | viscosity [mPa·s]
298 K, x1 = 0.5 | 3.855 ± 0.047
323 K, x1 = 0.9 | 1.435 ± 0.018

Cc1ccc(Cl)cc1 + Nc1cccc(Cl)c1
viscosity [mPa·s], 100 kPa
Settings | x2 = 0.0757 | x2 = 0.1649 | x2 = 0.2579 | x2 = 0.3519 | x2 = 0.4697 | x2 = 0.5707 | x2 = 0.6749 | x2 = 0.7826 | x2 = 0.8935
303.15 K | 1.052 ± 0.051 | 1.369 ± 0.051 | 1.698 ± 0.051 | 2.029 ± 0.052 | 2.441 ± 0.053 | 2.791 ± 0.053 | 3.15 ± 0.054 | 3.518 ± 0.055 | 3.895 ± 0.057
308.15 K | 0.968 ± 0.051 | 1.253 ± 0.051 | 1.549 ± 0.051 | 1.847 ± 0.052 | 2.217 ± 0.052 | 2.531 ± 0.053 | 2.853 ± 0.054 | 3.184 ± 0.055 | 3.521 ± 0.056
313.15 K | 0.899 ± 0.05 | 1.152 ± 0.051 | 1.414 ± 0.051 | 1.677 ± 0.051 | 2.003 ± 0.052 | 2.28 ± 0.053 | 2.564 ± 0.053 | 2.854 ± 0.054 | 3.15 ± 0.055
318.15 K | 0.823 ± 0.05 | 1.045 ± 0.051 | 1.273 ± 0.051 | 1.502 ± 0.051 | 1.786 ± 0.052 | 2.027 ± 0.052 | 2.274 ± 0.053 | 2.526 ± 0.054 | 2.782 ± 0.055

CN1CCN(C)C1=O + CCCCCCn1cc[n+](C)c1.[Cl-]
100 kPa
Settings | viscosity [mPa·s]
298.15 K, x2 = 0.1007 | 4.815 ± 0.21
303.15 K, x2 = 0.7981 | 978.5 ± 99

OCCOCCOCCO + CCC(C)O
viscosity [mPa·s], 100 kPa
Settings | x1 = 0.0808 | x1 = 0.1599 | x1 = 0.2399 | x1 = 0.35 | x1 = 0.44 | x1 = 0.5558 | x1 = 0.6502 | x1 = 0.7399 | x1 = 0.8502 | x1 = 0.94
293.15 K | 5.57 ± 0.12 | 7.33 ± 0.15 | 9.21 ± 0.19 | 12.23 ± 0.26 | 15.18 ± 0.32 | 19.7 ± 0.41 | 24.16 ± 0.51 | 29.07 ± 0.61 | 36.18 ± 0.76 | 43.08 ± 0.9
298.15 K | 4.23 ± 0.09 | 5.59 ± 0.12 | 7 ± 0.15 | 9.31 ± 0.2 | 11.53 ± 0.24 | 14.96 ± 0.31 | 18.37 ± 0.38 | 22.16 ± 0.46 | 27.73 ± 0.58 | 33.06 ± 0.69
303.15 K | 3.68 ± 0.08 | 4.84 ± 0.1 | 6.08 ± 0.13 | 7.92 ± 0.17 | 9.7 ± 0.2 | 12.38 ± 0.26 | 15.03 ± 0.31 | 17.95 ± 0.38 | 22.19 ± 0.46 | 26.32 ± 0.55
308.15 K | 3.18 ± 0.07 | 4.17 ± 0.09 | 5.17 ± 0.11 | 6.64 ± 0.14 | 7.98 ± 0.17 | 10.05 ± 0.21 | 12.09 ± 0.25 | 14.34 ± 0.3 | 17.76 ± 0.37 | 21 ± 0.44
313.15 K | 2.58 ± 0.05 | 3.33 ± 0.07 | 4.17 ± 0.09 | 5.42 ± 0.11 | 6.58 ± 0.14 | 8.32 ± 0.17 | 10.01 ± 0.21 | 11.91 ± 0.25 | 14.65 ± 0.31 | 17.26 ± 0.36
318.15 K | 2.26 ± 0.05 | 3.02 ± 0.06 | 3.79 ± 0.08 | 4.92 ± 0.1 | 5.92 ± 0.12 | 7.37 ± 0.15 | 8.75 ± 0.18 | 10.23 ± 0.21 | 12.32 ± 0.26 | 14.31 ± 0.3
323.15 K | 1.94 ± 0.04 | 2.54 ± 0.05 | 3.17 ± 0.07 | 4.12 ± 0.09 | 4.97 ± 0.1 | 6.23 ± 0.13 | 7.4 ± 0.15 | 8.65 ± 0.18 | 10.4 ± 0.22 | 11.99 ± 0.25

CCCCCCCCCCO + CCCCCCC
viscosity [mPa·s], 101.33 kPa
Settings | 298.15 K | 308.15 K
x1 = 0.0386 | 0.4346 ± 0.004 | 0.3825 ± 0.0036
x1 = 0.0772 | 0.4872 ± 0.0044 | 0.4312 ± 0.004
x1 = 0.1584 | 0.642 ± 0.0056 | 0.5562 ± 0.0049
x1 = 0.2472 | 0.8698 ± 0.0075 | 0.7324 ± 0.0063
x1 = 0.3368 | 1.225 ± 0.01 | 1.034 ± 0.0087
x1 = 0.4264 | 1.647 ± 0.014 | 1.331 ± 0.011
x1 = 0.5326 | 2.338 ± 0.021 | 1.903 ± 0.016
x1 = 0.6364 | 3.29 ± 0.03 | 2.7 ± 0.024
x1 = 0.7498 | 5.08 ± 0.05 | 3.93 ± 0.036
x1 = 0.8055 | 5.926 ± 0.06 | 4.829 ± 0.046
x1 = 0.8688 | 7.145 ± 0.075 | 5.938 ± 0.058
x1 = 0.9331 | 8.722 ± 0.096 | 6.788 ± 0.068

CC(C)[C@@H]1CC[C@@H](C)C[C@H]1O + CCCCO
Settings | viscosity [mPa·s]
298.15 K, 101.33 kPa, x1 = 0.5 | 18.77
